From US7432278B2, “Dicationic imidazo[1,2-a]pyridines and 5,6,7,8-tetrahydro-imidazo[1,2-a]pyridines as antiprotozoal agents” (The University of North Carolina at Chapel Hill, priority 2004, dated 2008) come the findings set out here.

The subject of data set [1] is Trypanosoma brucei rhodesiense. Description: In vitro anti-protozoan activity against T. b. r. The class given is cell-based. Particulars: for IC50: read-out: T.b.r. IC50; for in vitro activity (in words): against T. b. r. and P. f. (Table 1). Here is the method: The DNA binding studies and both the in vitro and in vivo antiprotozoan studies were performed as described by Ismail. M. A., et al., J. Med. Chem., 46, 4761-4769 (2003), which is incorporated herein by reference in its entirety. […]

Data set [2] concerns Plasmodium falciparum. Description: In vitro anti-protozoan activity against P. f. The class given is cell-based. As to conditions: concentration that gives 50% growth inhibition, average of duplicate determinations, K = 1,000. On the procedure:
(§1) The DNA binding studies and both the in vitro and in vivo antiprotozoan studies were performed as described by Ismail. M. A., et al., J. Med. Chem., 46, 4761-4769 (2003), which is incorporated herein by reference in its entirety.

In data set [3] the test system is T. b. r. (STIB900 acute infection). Description: In vivo anti-trypanosomal activity in the STIB900 mouse model. Particulars: for in vivo effectiveness on oral dosage (in words): STIB900 model; for Survival: average days of survival. Here is the method:
as §1
In this model five of the diamidines (8a, 8b, 7, 14b, 14a) give 4/4 cures and two, 13a and 14c, give 3/4 cures on intraperitoneal dosage. […] No attempts were made to optimize the formulation. […] One of ordinary skill in the art would appreciate that optimization of the formulation could improve the oral bioavailability of the prodrug.

The subject of data set [4] is Poly-(dA.dT)2. Description: DNA binding studies (ΔTm). Particulars: DNA affinity. Here is the method: as §1
Table 1 contains the results from the DNA binding studies for the new diamidines and the in vitro results for the compounds tested against T. b. r. and P. f. […] As a representative example of this class of compounds, compound 12 was evaluated and gave a ΔTm value of only 0.3.

The mark [5] stands for this setting: Trypanosoma brucei, RHODESIENSE, concentration that gives 50% growth inhibition, average of duplicate determinations, K = 1,000.
Setting [6] is: Mus musculus, 1440 h, po, 100 mg/kg, number of mice that survive and are parasite free for 60 days, read-out: Cures (converted).
Setting [7] is: Mus musculus, 1440 h, ip, 20 mg/kg, number of mice that survive and are parasite free for 60 days, read-out: Cures (converted).
[8] abbreviates: Mus musculus, 1440 h, po, 75 mg/kg, number of mice that survive and are parasite free for 60 days, read-out: Cures.
[9] abbreviates: concentration that gives 50% growth inhibition, average of duplicate determinations, K = 1,000.

Counter-ions that a name gives are not always drawn. Like-named read-outs stand apart in the source and are kept apart here. A value given as a limit tells only on which side of the number the result lay.

One may read the melting point as the temperature, or range, at which the solid turns liquid. For the compound `N=C(N)c1ccc(-c2cccc(-c3cn4c(n3)CCC(C(=N)N)C4)c2)cc1` (centres unmarked) (as salt: salt) [Compound 13b, 2-(4′-Amidinobiphenyl-3-yl)-5,6,7,8-tetrahydro-imidazo[1,2-a]pyridine-6-carboxamidine], the melting point was in the range of 236 to 238 °C.

The IC50 is the concentration at which inhibition is half-maximal. Consider `N=C(NO)c1ccc(-c2ccc(-c3cn4cc(C(=N)NO)ccc4n3)o2)cc1` [Compound 5a, N-Hydroxy-2-{5-[4-(N-hydroxyamidino)-phenyl]-furan-2-yl}-imidazo[1,2-a]pyridine-6-carboxamidine], for which the results for the half-inhibitory concentration (IC50) in data set [1] (setting [5]) and in data set [2] (Plasmodium falciparum) were 2200 nM and 1600 nM, respectively. Besides, in data set [1], the “in vitro activity (in words)” value is given as “essentially no in vitro activity”. Further, the responders at 50 mg/kg in data set [3] (Mus musculus, 1440 h, po, 50 mg/kg, number of mice that survive and are parasite free for 60 days, read-out: Cures (converted)) was 25%. Moreover, the “in vivo effectiveness on oral dosage (in words)” value (“in vivo effectiveness” below) in data set [3] was “did not show high in vivo effectiveness”. Besides, in data set [3] (po, 50 mg/kg), the “Survival” value was >19.5 days.

For `CONC(=N)c1ccc(-c2ccc(-c3cn4cc(C(=N)NOC)ccc4n3)o2)cc1` [Compound 6, N-Methoxy-2-{5-[4-(N-methoxyamidino)-phenyl]-furan-2-yl}-imidazo[1,2-a]pyridine-6-carboxamidine], the IC50 in data set [1] (setting [5]) was 3000 nM; in data set [2] (Plasmodium falciparum), 2800 nM. In addition, the “in vitro activity (in words)” value in data set [1] was “essentially no in vitro activity”. In data set [3] (setting [6]), the responders at 100 mg/kg is 50%. Further, the “in vivo effectiveness” value in data set [3] is “did not show high in vivo effectiveness”. The “Survival” value in data set [3] (po, 100 mg/kg) was >39.5 days.

`N=C(N)c1ccc(-c2ccc(-c3cn4c(n3)CCC(C(=N)N)C4)o2)cc1` (centres unmarked) [Compound 7, 2-[5-(4-Amidinophenyl)-furan-2-yl]-5,6,7,8-tetrahydro-imidazo[1,2-a]pyridine-6-carboxamidine]: the ΔTm Poly-(dA.dT)2 in data set [4] was 15.6 °C. Also, the IC50 in data set [1] (setting [5]) stood at 52 nM; in data set [2] (Plasmodium falciparum), 1200 nM. In addition, the responders at 5 mg/kg in data set [3] (Mus musculus, 1440 h, ip, 5 mg/kg, number of mice that survive and are parasite free for 60 days, read-out: Cures (converted)) is 50%. In addition, the responders at 20 mg/kg in data set [3] (setting [7]) is 100%. In addition, the “Survival” value in data set [3] (ip, 5 mg/kg) was >51 days; in data set [3] (ip, 20 mg/kg), >60 days.

In the case of `N=C(N)c1ccc(-c2ccc(-c3cn4cc(C(=N)N)ccc4n3)o2)cc1` [Compound 8a, 2-[5-(4-Amidinophenyl)-furan-2-yl]-imidazo[1,2-a]pyridine-6-carboxamidine], the ΔTm Poly-(dA.dT)2 in data set [4] was found to be 26.2 °C. Besides, the concentration for half-maximal inhibition (IC50) in data set [1] (setting [5]) is 63 nM; in data set [2] (Plasmodium falciparum), 14 nM. Also, the responders at 20 mg/kg in data set [3] (setting [7]) was 100%. The “Survival” value in data set [3] (ip, 20 mg/kg) is >60 days.

Consider `Cc1cc(C(=N)N)cn2cc(-c3ccc(-c4ccc(C(=N)N)cc4)o3)nc12` [Compound 8b, 2-[5-(4-Amidinophenyl)-furan-2-yl]-8-methyl-imidazo[1,2-a]pyridine-6-carboxamidine], for which the ΔTm Poly-(dA.dT)2 in data set [4] was > 27 °C. In addition, the figures for the concentration for half-maximal inhibition (IC50) in data set [1] (setting [5]) and in data set [2] (Plasmodium falciparum) were 6 nM and 88 nM, respectively. The responders at 20 mg/kg in data set [3] (setting [7]) was 100%. Besides, the “Survival” value in data set [3] (ip, 20 mg/kg) is on record as >60 days.

Turning to `N=C(NO)c1ccc(-c2ccc(-c3cn4cc(C(=N)NO)ccc4n3)cc2)cc1` [Compound 11a, N-Hydroxy-2-[4′-(N-hydroxyamidino)-biphenyl-4-yl]-imidazo[1,2-a]pyridine-6-carboxamidine], the results for the IC50 in data set [1] (setting [5]) and in data set [2] (Plasmodium falciparum) were > 166000 nM and 521 nM, respectively. In data set [1], the “in vitro activity (in words)” value is recorded as “essentially no in vitro activity”. In addition, in data set [3] (setting [8]), the responders at 75 mg/kg stood at 0%. The “in vivo effectiveness” value in data set [3] is on record as “did not show high in vivo effectiveness”. In data set [3] (po, 75 mg/kg), the “Survival” value was 28 days.

`N=C(NO)c1ccc(-c2cccc(-c3cn4cc(C(=N)NO)ccc4n3)c2)cc1` [Compound 11b, N-Hydroxy-2-[4′-(N-hydroxyamidino)-biphenyl-3-yl]-imidazo[1,2-a]pyridine-6-carboxamidine] registered a melting point of 252 to 254 °C.

`Cc1cc(C(=N)NO)cn2cc(-c3cccc(-c4ccc(C(=N)NO)cc4)c3)nc12` [Compound 11c, N-Hydroxy-2-[4′-(N-hydroxyamidino)-biphenyl-3-yl]-8-methyl-imidazo[1,2-a]pyridine-6-carboxamidine] returned a melting point of 193 to 195 °C.

As to `CONC(=N)c1ccc(-c2ccc(-c3cn4cc(C(=N)NOC)ccc4n3)cc2)cc1` [Compound 12, N-Methoxy-2-[4′-(N-methoxyamidino)-biphenyl-4-yl]-imidazo[1,2-a]pyridine-6-carboxamidine], in data set [4], the ΔTm Poly-(dA.dT)2 is 0.3 °C. Further, the IC50 was found to be 5300 nM in data set [1] (setting [5]) and 395 nM in data set [2] (Plasmodium falciparum). Further, the “in vitro activity (in words)” value in data set [1] is reported as “essentially no in vitro activity”. The responders at 75 mg/kg in data set [3] (setting [8]) turned out to be 0%. The “in vivo effectiveness” value in data set [3] is “did not show high in vivo effectiveness”. Besides, the “Survival” value in data set [3] (po, 75 mg/kg) is 20 days.

Turning to `N=C(N)c1ccc(-c2ccc(-c3cn4c(n3)CCC(C(=N)N)C4)cc2)cc1` (centres unmarked) [Compound 13a, 2-(4′-Amidinobiphenyl-4-yl)-5,6,7,8-tetrahydro-imidazo[1,2-a]pyridine-6-carboxamidine], the ΔTm Poly-(dA.dT)2 in data set [4] came out at 21.3 °C. In addition, the IC50 in data set [1] (setting [5]) is 116 nM; in data set [2] (Plasmodium falciparum), 14 nM. The responders at 10 mg/kg in data set [3] (Mus musculus, 1440 h, ip, 10 mg/kg, number of mice that survive and are parasite free for 60 days, read-out: Cures (converted)) is 75%. The “Survival” value in data set [3] (ip, 10 mg/kg) is recorded as >51.5 days.

In the case of `N=C(N)c1ccc(-c2cccc(-c3cn4c(n3)CCC(C(=N)N)C4)c2)cc1` (centres unmarked) [Compound 13b, 2-(4′-Amidinobiphenyl-3-yl)-5,6,7,8-tetrahydro-imidazo[1,2-a]pyridine-6-carboxamidine], the ΔTm Poly-(dA.dT)2 in data set [4] is 19.1 °C. Moreover, the IC50 in data set [1] (setting [5]) came to 226 nM; in data set [2] (Plasmodium falciparum), 86 nM.

In the case of `N=C(N)c1ccc(-c2ccc(-c3cn4cc(C(=N)N)ccc4n3)cc2)cc1` [Compound 14a, 2-(4′-Amidinobiphenyl-4-yl)-imidazo[1,2-a]pyridine-6-carboxamidine], the ΔTm Poly-(dA.dT)2 in data set [4] was 24.2 °C. Besides, the results for the IC50 in data set [1] (setting [5]) and in data set [2] (Plasmodium falciparum) were 1 nM and 43 nM, respectively. In data set [3] (setting [7]), the responders at 20 mg/kg was 100%. The “Survival” value in data set [3] (ip, 20 mg/kg) was >60 days.

Turning to `N=C(N)c1ccc(-c2cccc(-c3cn4cc(C(=N)N)ccc4n3)c2)cc1` [Compound 14b, 2-(4′-Amidinobiphenyl-3-yl)-imidazo[1,2-a]pyridine-6-carboxamidine], the ΔTm Poly-(dA.dT)2 in data set [4] was > 27 °C. Also, the IC50 in data set [1] (setting [5]) is 22 nM; in data set [2] (Plasmodium falciparum), 107 nM. In data set [3] (setting [7]), the responders at 20 mg/kg was 100%. Moreover, the “Survival” value in data set [3] (ip, 20 mg/kg) is given as >60 days.

With `Cc1cc(C(=N)N)cn2cc(-c3cccc(-c4ccc(C(=N)N)cc4)c3)nc12` [Compound 14c, 2-(4′-Amidinobiphenyl-3-yl)-8-methyl-imidazo[1,2-a]pyridine-6-carboxamidine], the ΔTm Poly-(dA.dT)2 in data set [4] is > 27 °C. Besides, the IC50 was 49 nM in data set [1] (setting [5]) and 86 nM in data set [2] (Plasmodium falciparum). For the same compound, in data set [3] (setting [7]), the responders at 20 mg/kg was 75%. The “Survival” value in data set [3] (ip, 20 mg/kg) is given as >50 days.

Consider `N=C(N)c1ccc(-c2cn3c(n2)CCC(c2ccc(C(=N)N)cc2)C3)cc1` (centres unmarked) [Compound 18], for which the figures for the IC50 in data set [1] (setting [9]) and in data set [2] were 14 nM and 85 nM, respectively.

`N=C(N)c1ccc(-c2ccc3nc(-c4ccc(C(=N)N)cc4)cn3c2)cc1` [Compound 19]: the IC50 in data set [1] (setting [9]) came out at 7 nM; in data set [2], 92 nM.

On to `CONC(=N)c1ccc(-c2ccc(-c3ccc(C(=N)NOC)cc3)o2)cc1` [Compound IIIa, 2,5-Bis[4-(methoxyamidino)phenyl]furan, reference compound], for which the ΔTm Poly-(dA.dT)2 in data set [4] is 25 °C. Further, the IC50 in data set [1] (setting [5]) stood at 4.5 nM; in data set [2] (Plasmodium falciparum) it was 15.5 nM. In data set [3] (setting [6]), the responders at 100 mg/kg is 100%. For the same compound, the “Survival” value in data set [3] (po, 100 mg/kg) is listed as >60 days.

As to `N=C(N)c1ccc(-c2ccc(-c3ccc(C(=N)N)cc3)o2)cc1` [Furamidine(IIa), 2,5-Bis(4-amidinophenyl)furan, reference compound], in data set [1] (Trypanosoma brucei, RHODESIENSE), the IC50 turned out to be 14600 nM. The responders at 20 mg/kg in data set [3] (Mus musculus, ip, 1440 h, read-out: Cures) was found to be 0%. Also, the “Survival” value in data set [3] (ip, 20 mg/kg) is on record as 52.5 days.

On to `N=C(N)c1ccc(OCCCCCOc2ccc(C(=N)N)cc2)cc1` [Pentamidine(I), Pentamidine, reference compound], for which, in data set [4], the ΔTm Poly-(dA.dT)2 came out at 12 °C. The responders at 20 mg/kg in data set [3] (setting [7]) was 0%. In addition, the “Survival” value in data set [3] (ip, 20 mg/kg) was 40.8 days.
